One data set relates to HPV-11. The experiment in a line: Low risk HPV assay: HPV origin plasmid replication in HEK 293 cells (qPCR). Format: cell-based, human papillomavirus. The protocol: (§1) An origin-containing low risk or high risk HPV plasmid was co-transfected with homologous E1 and E2 protein expression vectors into HEK 293 cells. At 4 h post-transfection, cells were treated with test compound dilutions and then incubated for 48 h. HPV origin plasmid replication was detected after digestion with DpnI and exonuclease III to remove unreplicated transfected plasmids. Remaining replicated DNA was quantified by quantitative real time PCR (qPCR). In a parallel experiment in uninfected cells cytotoxicity was determined by trypan blue exclusion or CELLTITER-GLO® to find the concentration that reduced viable cell number by 50% (CC50). CC50 values were determined by trypan blue exclusion or CELLTITER-GLO® and the selectivity index calculated (Selectivity index=CC50/EC50). The low risk HPV tested was HPV-11, and the high-risk HPV tested was HPV-16 and HPV-18.

The test system of a further data set is HPV-16 and HPV-18. In words: High risk HPV assay: HPV origin plasmid replication in HEK 293 cells (qPCR). Format: cell-based, human papillomavirus. To be noted: read-out: EC50 High Risk. The protocol:
as §1

A short description of data set [1]: Cytotoxicity assay in HEK-293 cells (CELLTITER-GLO). Format: cell-based. To be noted: human; for CC50 at 2 d: Table 3, CELLTITER-GLO, 2 d incubation; for CC50 at 48 h: Table B, parallel to HPV-11 antiviral assay. The protocol: as §1
Cytotoxicity Assays in HEK-293 cells. Cytotoxicity assays are performed in concurrently with every antiviral assay using the same cell line and media to ensure the same compound exposure. For the antiviral studies against HPV11 in HEK-293 cells, transfected cells are seeded in duplicate plates. Following a 2 h exposure, compound dilutions are prepared in both the antiviral plate and the duplicate cytotoxicity plate. At 48 h following compound addition, CELLTITE-GLO® (Promega) is added to each well and luminescence is determined on a luminometer. Concentrations of compounds sufficient to reduce cell viability by 50% are calculated from the experimental data (CC50 values).

A short description of data set [2]: Cytotoxicity assay in primary human foreskin fibroblast cells (CELLTITER-GLO). Format: cell-based. To be noted: Table 3, CELLTITER-GLO, 7 d incubation. As for the experimental part:
Cytotoxicity Assays in Primary Human Foreskin Fibroblast Cells. Cytotoxicity was also evaluated in human foreskin fibroblast (HFF) cells as they are a highly sensitive indicator of toxicity in a standard assay with 7 d of compound exposure. A total of 4000 cells/well are seeded in 384-well plates in cell culture media containing 2% fetal bovine serum and antibiotics. Following a 24 h incubation, 5-fold compound dilutions are performed in duplicate wells directly in the plates containing monolayers of HFF cells. At 7 d following compound addition, CELLTITER-GLO® reagent is added to each well and resulting luminescence is measured on a luminometer to assess the number of viable cells in each well. Data are then used to calculate CC50 values.

Setting [3] is: low risk HPV (HPV-11), HEK 293 cells, 48 h incubation, read-out: EC50 Low Risk.
[4] abbreviates: Human papillomavirus, HEK293, Antiviral activity against HPV-11 in HEK-293 cells, read-out: EC50.
[5] abbreviates: Human papillomavirus, HEK293, Antiviral activity against HPV-11 in HEK-293 cells, read-out: EC90.
[6] abbreviates: primary human foreskin fibroblast (HFF) cells.

Results on eleven molecules are retold here after US11572377B2, “Nucleotide analogs” (The Regents of the University of California, priority 2015, dated 2023).

Like-named read-outs stand apart in the source and are kept apart here.

Consider `CCCCCCCCCCCCCCCCCCOCCOP(=O)(O)COCCn1cnc2c(=O)[nH]c(N)nc21` [ODE-PMEG, Octadecyloxyethyl-Phosphonomethoxyethylguanine, reference compound], for which the EC50 with HPV-11 (setting [3]) is less than 0.3 µM; in the data set on HPV-16 and HPV-18 (high risk HPV (HPV-16 and HPV-18), HEK 293 cells, 48 h incubation) it was less than 0.3 µM.
With `CCCCCCCCCCCCCCCCCCOCC(COP(=O)(O)COCCn1cnc2c(=O)[nH]c(N)nc21)OCc1ccccc1` (stereo not drawn) [ODBG-PMEG, 1-O-Octadecyl-2-O-benzyl-sn-glyceryl PMEG], the EC50 was 0.3 to 3.09 µM in the data set on HPV-11 (Human papillomavirus, HEK293, low risk HPV (HPV-11), HEK 293 cells, 48 h incubation, read-out: EC50 Low Risk); 0.3 to 3.09 µM with HPV-16 and HPV-18 (Human papillomavirus, HEK293, 48 h).
Take `CCOC(=O)[C@H](C)NP(=O)(COCCn1cnc2c(=O)[nH]c(N)nc21)N[C@@H](C)C(=O)OCC` [PMEG bisamidate, 9-[2-(bis-(ethyloxy-L-alaninyl)-phosphonomethoxy)ethyl]guanine]: the EC50 in the data set with HPV-11 (setting [4]) amounted to 5.04 ± 7.01 µM. In addition, the EC90 with HPV-11 (setting [5]) was greater than 100 µM. In addition, in data set [1] (HEK-293 cells), the CC50 at 2 d was greater than 100 µM and the CC50 at 48 h is greater than 100 µM. The same molecule yielded a CC50 at 7 d in data set [2] (setting [6]) greater than 100 µM.
In the case of `CCCCCCCCCCCCCCCCCCOCCOP(=O)(COCCn1cnc2c(=O)[nH]c(N)nc21)OCc1ccc(OC)c(F)c1` (stereo not drawn) [ODE-(3-F-4-OMe-Bn)-PMEG], in the data set on HPV-11 (setting [4]), the EC50 was 0.18 ± 0.04 µM. Besides, the EC90 in the data set on HPV-11 (setting [5]) came out at 0.99 ± 0.13 µM. Moreover, in data set [1] (HEK-293 cells), it took 13.1 ± 5.17 µM to reach half-maximal cytotoxicity (CC50 at 2 d) and the CC50 at 48 h is 14.2 ± 9.48 µM. Also, the CC50 at 7 d in data set [2] (setting [6]) is 1.72 ± 0.66 µM.
For `CCCCCCCCCCCCCCCCCCOCCOP(=O)(COCCn1cnc2c(=O)[nH]c(N)nc21)OCc1cccc(Cl)c1` (stereo not drawn) [ODE-(3-Cl-Bn)-PMEG], in that order: 0.22 ± 0.19 µM, greater than 0.4 µM, 1 ± 0.16 µM, 1.11 ± 0.27 µM and 4.65 ± 1.73 µM.
Consider `Nc1nc2c(ncn2CCOCP(=O)(O)O)c(=O)[nH]1` [PMEG, 9-(2-phosphonylmethoxyethyl)guanine, reference compound], for which the EC50 with HPV-11 (setting [3]) lay in the range of 3 to 30 µM.
Take `CCCCCCCCCCCCCCCCCCOCCOP(=O)(COCCn1cnc2c(=O)[nH]c(N)nc21)OCc1ccc(C)cc1` (stereo not drawn) [ODE-(4-Me-Bn)-PMEG]: the EC50 in the data set with HPV-11 (setting [4]) amounted to 0.93 ± 0.91 µM. In addition, in the data set with HPV-11 (setting [5]), the EC90 was 7 ± 3.45 µM. In data set [1] (HEK-293 cells), this molecule registered a CC50 at 2 d of 32 ± 8.14 µM and a CC50 at 48 h of 23.8 ± 19.5 µM. The same molecule yielded a CC50 at 7 d in data set [2] (setting [6]) of 6.02 ± 3.79 µM.
As for `CCCCCCCCCCCCCCCCCCOCCOP(=O)(COCCn1cnc2c(=O)[nH]c(N)nc21)OCc1cccc(F)c1` (stereo not drawn) [ODE-(3-F-Bn)-PMEG], the EC50 in the data set on HPV-11 (setting [4]) came to 0.26 µM. The EC90 with HPV-11 (setting [5]) worked out at 1.59 ± 0.57 µM. Also, in data set [1] (HEK-293 cells), the CC50 at 2 d is 2.16 ± 0.36 µM and the CC50 at 48 h came out at 1.74 ± 0.03 µM. In data set [2] (setting [6]), this molecule returned a CC50 at 7 d of 6.88 ± 4.92 µM.
In the data set with HPV-11 (Human papillomavirus, HEK293), `CCOC(=O)[C@H](C)NP(=O)(COCCn1cnc2c(=O)[nH]c(N)nc21)Oc1ccccc1` (stereo partly drawn) [PMEG phenoxy amidate] yielded an EC50 of 7.56 ± 0.63 µM and an EC90 greater than 100 µM. Also, the CC50 at 2 d in data set [1] was greater than 100 µM. The molecule also had a CC50 at 48 h in data set [1] (HEK-293 cells) greater than 100 µM. Also, in data set [2] (read-out: CC50 HFF (7 d incubation)), the CC50 at 7 d stood at 70.9 ± 4.07 µM.
Turning to `CCCCCCCCCCCCCCCCCCOCCOP(=O)(COCCn1cnc2c(=O)[nH]c(N)nc21)OCc1ccc(OC)c(Cl)c1` (stereo not drawn) [ODE-(3-Cl-4-OMe-Bn)-PMEG], the concentration for a half-maximal effect (EC50) in the data set on HPV-11 (setting [4]) is 0.68 ± 0.62 µM. Besides, the EC90 in the data set on HPV-11 (setting [5]) was 1.34 ± 0.78 µM. In data set [1] (HEK-293 cells), this molecule yielded a CC50 at 2 d of 8.87 ± 1.2 µM and a CC50 at 48 h of 8.31 ± 1.83 µM. Moreover, the midpoint of cytotoxicity in data set [2] (setting [6]), the CC50 at 7 d, lay at 2.27 ± 0.51 µM.
For `Nc1ccn(C[C@@H](CO)OCP(=O)(O)O)c(=O)n1` [Cidofovir, cidofovir, reference compound], in that order: 41.7 ± 12 µM, greater than 300 µM, greater than 300 µM, greater than 300 µM and greater than 300 µM.
